Data from paper PMC8795404, “Mutations in respiratory complex I promote antibiotic persistence through alterations in intracellular acidity and protein synthesis” (Nature Communications, 2022).

What was measured:
Assay type in all cases: biochemical
[1] = target: T1, complex I (NADH/ubiquinone oxidoreductase) (Escherichia coli, UniProt P0AFC7+P0AFD4+P31979+P33599); test: NADH absorbance at […] nm, proteoliposomes; settings: 100 µM NADH, 60 µM decyl-ubiquinone, 5 mM MES/NaOH, 50 mM KCl, 2 mM MgCl2, pH 6.0, 30 °C
T1 construct: gene nuoB; 13-subunit complex, about 550 kDa, NuoF His6-tagged (pBADnuo nuoFHis6) expressed in BW25113 delta-nuo delta-ndh; DDM-purified, in proteoliposomes or in membranes; with NADH-quinone oxidoreductase subunit A; NADH-quinone oxidoreductase subunit E; NADH-quinone oxidoreductase subunit G; NADH-quinone oxidoreductase subunit I; NADH-quinone oxidoreductase subunit J; NADH-quinone oxidoreductase subunit K; NADH-quinone oxidoreductase subunit L; NADH-quinone oxidoreductase subunit M; NADH-quinone oxidoreductase subunit N

[2] = target: T2, ENC-spoT (encapsulin SpoT) (Escherichia coli, UniProt P0AG24); test: HPLC-UV ([…] nm) ppGpp hydrolysis; settings: 1 mM ppGpp, 1 mM manganese, cytosolic buffer with 250 mM imidazole and 0.1% triton-X100, 25 °C, pH varied; enzyme encapsulated in nanocage
T2 construct: N-terminal 6xHis tag, C-terminal 30-residue DyP-peroxidase cargo tag; co-expressed in E. coli BL21-AI inside Mycolicibacterium hassiacum encapsulin nanocage

6His-SpoT = target: T3, 6His-SpoT (Escherichia coli, UniProt P0AG24); test: HPLC-UV ([…] nm) ppGpp hydrolysis; settings: 1 mM ppGpp, 1 mM manganese, cytosolic buffer with 250 mM imidazole, 25 °C, pH varied; free enzyme
T3 construct: full-length with N-terminal His tag (pETM11-SpoT), expressed in E. coli BL21 (DE3) pLysS, Ni-Sepharose purified
T3 sequence (P0AG24 whole entry): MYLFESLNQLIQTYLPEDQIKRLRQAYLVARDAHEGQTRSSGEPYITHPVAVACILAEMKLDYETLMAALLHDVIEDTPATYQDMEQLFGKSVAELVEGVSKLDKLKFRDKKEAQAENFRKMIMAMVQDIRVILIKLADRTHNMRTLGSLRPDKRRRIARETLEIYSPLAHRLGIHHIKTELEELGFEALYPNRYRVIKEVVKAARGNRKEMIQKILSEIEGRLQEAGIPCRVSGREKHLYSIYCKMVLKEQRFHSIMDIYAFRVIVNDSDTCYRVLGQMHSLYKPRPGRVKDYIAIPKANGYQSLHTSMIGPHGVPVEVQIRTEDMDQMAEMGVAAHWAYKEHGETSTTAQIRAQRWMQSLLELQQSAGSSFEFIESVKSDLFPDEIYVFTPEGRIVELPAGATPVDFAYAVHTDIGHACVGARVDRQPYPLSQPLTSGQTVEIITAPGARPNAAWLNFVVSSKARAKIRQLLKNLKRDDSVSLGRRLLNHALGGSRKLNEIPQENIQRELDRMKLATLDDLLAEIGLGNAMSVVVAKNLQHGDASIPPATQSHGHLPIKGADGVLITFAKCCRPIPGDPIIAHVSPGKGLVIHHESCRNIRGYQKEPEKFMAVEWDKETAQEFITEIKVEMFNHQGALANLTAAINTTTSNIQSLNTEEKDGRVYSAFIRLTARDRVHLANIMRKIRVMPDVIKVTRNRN

T2 sequence (P0AG24 whole entry): as above

SMILES: NC(=O)C1=CN([C@@H]2O[C@H](COP(=O)(O)OP(=O)(O)OC[C@H]3O[C@@H](n4cnc5c(N)ncnc54)[C@H](O)[C@@H]3O)[C@@H](O)[C@H]2O)C=CC1 [NADH]
- NADH absorbance at 340 nm, proteoliposomes [1]: liposomes reconstituted with wild-type complex I and the variants oxidized NADH at a similar rate

SMILES: CCCCCCCCCCC1=C(C)C(=O)C(OC)=C(OC)C1=O [decyl ubiquinone]
- NADH absorbance at 340 nm, proteoliposomes [1]: NADH/decyl ubiquinone oxidoreduction was followed by monitoring the decreasing NADH concentration

SMILES: Nc1nc2c(ncn2[C@@H]2O[C@H](COP(=O)(O)OP(=O)(O)O)[C@@H](OP(=O)(O)OP(=O)(O)O)[C@H]2O)c(=O)[nH]1 [ppGpp]
- HPLC-UV (260 nm) ppGpp hydrolysis [2]: We used both the encapsulated SpoT and regularly purified SpoT
- HPLC-UV (260 nm) ppGpp hydrolysis (6His-SpoT): SpoT hydrolyzes ppGpp to GDP, and that manganese ions are necessary for hydrolysis
